Our source for the IC50 values is patent US20230093099A1, “COMPOUNDS AND METHODS OF TREATING CANCERS” (CULLGEN (SHANGHAI), INC., priority 2019, published 2023).

The first test concerns RS4;11 cells. In words: Cell viability assay (CellTiter-Glo) in RS4;11 cells. Conditions: Homo sapiens, 72 h; RS4;11 ALL cells treated for three days; read-out: cell viability inhibition IC50. It is filed as cell-based. A digest of the protocol:
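Three-day compound treatment of RS4;11 ALL cells (5000/well, 3-fold dilution series of 8 or 12 points), with IC50 from a nonlinear least-squares fit to CellTiter-Glo viability data.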
Regarding `Cc1cnc(Nc2ccc(N3CCN(C(=O)CCCCCCCNc4ccc5c(c4)C(=O)N(C4CCC(=O)NC4=O)C5=O)CC3)cc2)nc1Nc1cccc(S(=O)(=O)NC(C)(C)C)c1` (centres unmarked) [JA-231, N-(tert-butyl)-3-((2-((4-(4-(8-((2-(2,6-dioxopiperidin-3-yl)-1,3-dioxoisoindolin-5-yl)amino)octanoyl)piperazin-1-yl)phenyl)amino)-5-methylpyrimidin-4-yl)amino)benzenesulfonamide], the IC50 was under 100 nM.

The test is the same for the next values; noted with them: Homo sapiens, 72 h; RS4;11 cells; cell viability, 3 days, CellTiter-Glo; read-out: IC50.
For `Cc1cnc(Nc2ccc(N3CCN(C(=O)CCCCCCCNc4ccc5c(c4)C(=O)N(C4CCC(=O)NC4=O)C5=O)CC3)cc2)nc1Nc1cccc(S(=O)(=O)NC(C)(C)C)c1` (centres unmarked) [JA-231, N-(tert-butyl)-3-((2-((4-(4-(8-((2-(2,6-dioxopiperidin-3-yl)-1,3-dioxoisoindolin-5-yl)amino)octanoyl)piperazin-1-yl)phenyl)amino)-5-methylpyrimidin-4-yl)amino)benzenesulfonamide], the IC50 is 80.2 nM. The same measure, in the same setting: the same measure for `Cc1cnc(Nc2ccc(N3CCN(C(=O)CCOCCNc4ccc5c(c4)C(=O)N(C4CCC(=O)NC4=O)C5=O)CC3)cc2)nc1Nc1cccc(S(=O)(=O)NC(C)(C)C)c1` (centres unmarked) [JA-232, N-(tert-butyl)-3-((2-((4-(4-(3-(2-((2-(2,6-dioxopiperidin-3-yl)-1,3-dioxoisoindolin-5-yl)amino)ethoxy)propanoyl)piperazin-1-yl)phenyl)amino)-5-methylpyrimidin-4-yl)amino)benzenesulfonamide]: over 10000 nM; for `Cc1cnc(Nc2ccc(N3CCN(C(=O)CCOCCOCCNc4ccc5c(c4)C(=O)N(C4CCC(=O)NC4=O)C5=O)CC3)cc2)nc1Nc1cccc(S(=O)(=O)NC(C)(C)C)c1` (centres unmarked) [JA-233, N-(tert-butyl)-3-((2-((4-(4-(3-(2-(2-((2-(2,6-dioxopiperidin-3-yl)-1,3-dioxoisoindolin-5-yl)amino)ethoxy)ethoxy)propanoyl)piperazin-1-yl)phenyl)amino)-5-methylpyrimidin-4-yl)amino)benzenesulfonamide]: 287 nM. Still for that read-out and setting: the same measure for `Cc1cnc(Nc2ccc(N3CCN(C(=O)CCOCCOCCOCCNc4ccc5c(c4)C(=O)N(C4CCC(=O)NC4=O)C5=O)CC3)cc2)nc1Nc1cccc(S(=O)(=O)NC(C)(C)C)c1` (centres unmarked) [JA-234, N-(tert-butyl)-3-((2-((4-(4-(3-(2-(2-(2-((2-(2,6-dioxopiperidin-3-yl)-1,3-dioxoisoindolin-5-yl)amino)ethoxy)ethoxy)ethoxy)propanoyl)piperazin-1-yl)phenyl)amino)-5-methylpyrimidin-4-yl)amino)benzenesulfonamide]: 1590 nM; for `Cc1cnc(Nc2ccc(N3CCN(C(=O)CCOCCOCCOCCOCCNc4ccc5c(c4)C(=O)N(C4CCC(=O)NC4=O)C5=O)CC3)cc2)nc1Nc1cccc(S(=O)(=O)NC(C)(C)C)c1` (centres unmarked) [JA-235, N-(tert-butyl)-3-((2-((4-(4-(1-((2-(2,6-dioxopiperidin-3-yl)-1,3-dioxoisoindolin-5-yl)amino)-3,6,9,12-tetraoxapentadecan-15-oyl)piperazin-1-yl)phenyl)amino)-5-methylpyrimidin-4-yl)amino)benzenesulfonamide]: 848 nM. Same read-out and setting: the same measure for `Cc1cnc(Nc2ccc(N3CCN(C(=O)CCOCCOCCOCCOCCOCCNc4ccc5c(c4)C(=O)N(C4CCC(=O)NC4=O)C5=O)CC3)cc2)nc1Nc1cccc(S(=O)(=O)NC(C)(C)C)c1` (centres unmarked) [JA-236, N-(tert-butyl)-3-((2-((4-(4-(1-((2-(2,6-dioxopiperidin-3-yl)-1,3-dioxoisoindolin-5-yl)amino)-3,6,9,12,15-pentaoxaoctadecan-18-oyl)piperazin-1-yl)phenyl)amino)-5-methylpyrimidin-4-yl)amino)benzenesulfonamide]: 2640 nM; for `Cc1cnc(Nc2ccc(N3CCN(CC(=O)NCCOCCNc4ccc5c(c4)C(=O)N(C4CCC(=O)NC4=O)C5=O)CC3)cc2)nc1Nc1cccc(S(=O)(=O)NC(C)(C)C)c1` (centres unmarked) [JA-237, 2-(4-(4-((4-((3-(N-(tert-butyl)sulfamoyl)phenyl)amino)-5-methylpyrimidin-2-yl)amino)phenyl)piperazin-1-yl)-N-(2-(2-((2-(2,6-dioxopiperidin-3-yl)-1,3-dioxoisoindolin-5-yl)amino)ethoxy)ethyl)acetamide]: over 10000 nM; for `Cc1cnc(Nc2ccc(N3CCN(CC(=O)NCCOCCOCCNc4ccc5c(c4)C(=O)N(C4CCC(=O)NC4=O)C5=O)CC3)cc2)nc1Nc1cccc(S(=O)(=O)NC(C)(C)C)c1` (centres unmarked) [JA-238, 2-(4-(4-((4-((3-(N-(tert-butyl)sulfamoyl)phenyl)amino)-5-methylpyrimidin-2-yl)amino)phenyl)piperazin-1-yl)-N-(2-(2-(2-((2-(2,6-dioxopiperidin-3-yl)-1,3-dioxoisoindolin-5-yl)amino)ethoxy)ethoxy)ethyl)acetamide]: 723 nM. As to `Cc1cnc(Nc2ccc(N3CCN(CC(=O)NCCOCCOCCOCCNc4ccc5c(c4)C(=O)N(C4CCC(=O)NC4=O)C5=O)CC3)cc2)nc1Nc1cccc(S(=O)(=O)NC(C)(C)C)c1` (centres unmarked) [JA-239, 2-(4-(4-((4-((3-(N-(tert-butyl)sulfamoyl)phenyl)amino)-5-methylpyrimidin-2-yl)amino)phenyl)piperazin-1-yl)-N-(2-(2-(2-(2-((2-(2,6-dioxopiperidin-3-yl)-1,3-dioxoisoindolin-5-yl)amino)ethoxy)ethoxy)ethoxy)ethyl)acetamide], the IC50 turned out to be 743 nM. Still for that read-out and setting: then `Cc1cnc(Nc2ccc(N3CCN(CC(=O)NCCOCCOCCOCCOCCNc4ccc5c(c4)C(=O)N(C4CCC(=O)NC4=O)C5=O)CC3)cc2)nc1Nc1cccc(S(=O)(=O)NC(C)(C)C)c1` (centres unmarked) [JA-240, 2-(4-(4-((4-((3-(N-(tert-butyl)sulfamoyl)phenyl)amino)-5-methylpyrimidin-2-yl)amino)phenyl)piperazin-1-yl)-N-(14-((2-(2,6-dioxopiperidin-3-yl)-1,3-dioxoisoindolin-5-yl)amino)-3,6,9,12-tetraoxatetradecyl)acetamide], with 638 nM; and `Cc1cnc(Nc2ccc(N3CCN(CC(=O)NCCOCCOCCOCCOCCOCCNc4ccc5c(c4)C(=O)N(C4CCC(=O)NC4=O)C5=O)CC3)cc2)nc1Nc1cccc(S(=O)(=O)NC(C)(C)C)c1` (centres unmarked) [JA-241, 2-(4-(4-((4-((3-(N-(tert-butyl)sulfamoyl)phenyl)amino)-5-methylpyrimidin-2-yl)amino)phenyl)piperazin-1-yl)-N-(17-((2-(2,6-dioxopiperidin-3-yl)-1,3-dioxoisoindolin-5-yl)amino)-3,6,9,12,15-pentaoxaheptadecyl)acetamide], with 1040 nM. The same measure, in the same setting: then `Cc1cnc(Nc2ccc(N3CCN(CC(=O)NCCNc4ccc5c(c4)C(=O)N(C4CCC(=O)NC4=O)C5=O)CC3)cc2)nc1Nc1cccc(S(=O)(=O)NC(C)(C)C)c1` (centres unmarked) [JA-242, 2-(4-(4-((4-((3-(N-(tert-butyl)sulfamoyl)phenyl)amino)-5-methylpyrimidin-2-yl)amino)phenyl)piperazin-1-yl)-N-(2-((2-(2,6-dioxopiperidin-3-yl)-1,3-dioxoisoindolin-5-yl)amino)ethyl)acetamide], with 543 nM; and `Cc1cnc(Nc2ccc(N3CCN(CC(=O)NCCCCNc4ccc5c(c4)C(=O)N(C4CCC(=O)NC4=O)C5=O)CC3)cc2)nc1Nc1cccc(S(=O)(=O)NC(C)(C)C)c1` (centres unmarked) [JA-243, 2-(4-(4-((4-((3-(N-(tert-butyl)sulfamoyl)phenyl)amino)-5-methylpyrimidin-2-yl)amino)phenyl)piperazin-1-yl)-N-(4-((2-(2,6-dioxopiperidin-3-yl)-1,3-dioxoisoindolin-5-yl)amino)butyl)acetamide], with 1980 nM.

As for `Cc1cnc(Nc2ccc(N3CCN(CC(=O)NCCCCCNc4ccc5c(c4)C(=O)N(C4CCC(=O)NC4=O)C5=O)CC3)cc2)nc1Nc1cccc(S(=O)(=O)NC(C)(C)C)c1` (centres unmarked) [JA-244, 2-(4-(4-((4-((3-(N-(tert-butyl)sulfamoyl)phenyl)amino)-5-methylpyrimidin-2-yl)amino)phenyl)piperazin-1-yl)-N-(5-((2-(2,6-dioxopiperidin-3-yl)-1,3-dioxoisoindolin-5-yl)amino)pentyl)acetamide], the IC50 was over 10000 nM.

Turning to `Cc1cnc(Nc2ccc(N3CCN(CC(=O)NCCCCCCNc4ccc5c(c4)C(=O)N(C4CCC(=O)NC4=O)C5=O)CC3)cc2)nc1Nc1cccc(S(=O)(=O)NC(C)(C)C)c1` (centres unmarked) [JA-245, 2-(4-(4-((4-((3-(N-(tert-butyl)sulfamoyl)phenyl)amino)-5-methylpyrimidin-2-yl)amino)phenyl)piperazin-1-yl)-N-(6-((2-(2,6-dioxopiperidin-3-yl)-1,3-dioxoisoindolin-5-yl)amino)hexyl)acetamide], the IC50 worked out at 150 nM. Still for that read-out and setting: then `Cc1cnc(Nc2ccc(N3CCN(CC(=O)NCCCCCCCNc4ccc5c(c4)C(=O)N(C4CCC(=O)NC4=O)C5=O)CC3)cc2)nc1Nc1cccc(S(=O)(=O)NC(C)(C)C)c1` (centres unmarked) [JA-246, 2-(4-(4-((4-((3-(N-(tert-butyl)sulfamoyl)phenyl)amino)-5-methylpyrimidin-2-yl)amino)phenyl)piperazin-1-yl)-N-(7-((2-(2,6-dioxopiperidin-3-yl)-1,3-dioxoisoindolin-5-yl)amino)heptyl)acetamide], with 229 nM; and `Cc1cnc(Nc2ccc(N3CCN(CC(=O)NCCCCCCCCNc4ccc5c(c4)C(=O)N(C4CCC(=O)NC4=O)C5=O)CC3)cc2)nc1Nc1cccc(S(=O)(=O)NC(C)(C)C)c1` (centres unmarked) [JA-247, 2-(4-(4-((4-((3-(N-(tert-butyl)sulfamoyl)phenyl)amino)-5-methylpyrimidin-2-yl)amino)phenyl)piperazin-1-yl)-N-(8-((2-(2,6-dioxopiperidin-3-yl)-1,3-dioxoisoindolin-5-yl)amino)octyl)acetamide], with 484 nM; and `CS(=O)(=O)c1ccc(-c2cccc3nc(Nc4ccc(N5CCN(C(=O)CCCCC#Cc6ccc7c(c6)C(=O)N(C6CCC(=O)NC6=O)C7=O)CC5)cc4)nn23)cc1` (centres unmarked) [JA-248, 2-(2,6-Dioxopiperidin-3-yl)-5-(7-(4-(4-((5-(4-(methylsulfonyl)phenyl)-[1,2,4]triazolo[1,5-a]pyridin-2-yl)amino)phenyl)piperazin-1-yl)-7-oxohept-1-yn-1-yl)isoindoline-1,3-dione], with 247 nM. The same measure, in the same setting: the same measure for `CS(=O)(=O)c1ccc(-c2cccc3nc(Nc4ccc(N5CCN(C(=O)CCCCCCc6ccc7c(c6)C(=O)N(C6CCC(=O)NC6=O)C7=O)CC5)cc4)nn23)cc1` (centres unmarked) [JA-249, 2-(2,6-Dioxopiperidin-3-yl)-5-(7-(4-(4-((5-(4-(methylsulfonyl)phenyl)-[1,2,4]triazolo[1,5-a]pyridin-2-yl)amino)phenyl)piperazin-1-yl)-7-oxoheptyl)isoindoline-1,3-dione]: 104 nM.
